#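 These data come from cells grown in 96-well plates and exposed to compound for 48 hours at five concentrations. At the GI50, growth is halved. At the TGI there is no net growth.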
# How the values were obtained:
# Assay in all cases: inhibition of tumour cell growth, NCI panel, 48 h
# [1] = system: SNB-19 CNS
# [2] = system: MOLT-4 leukemia
# [3] = system: HCT-116 colon
# [4] = system: MALME-3M melanoma
# [5] = system: IGROV1 ovarian
# [6] = system: COLO 205 colon
# [7] = system: SF-268 CNS
# [8] = system: CCRF-CEM leukemia
# [9] = system: HL-60(TB) leukemia
# [10] = system: PC-3 prostate
Structure (SMILES),TGI [1] [µM],TGI [2] [µM],TGI [3] [µM],TGI [4] [µM],TGI [5] [µM],TGI [6] [µM],TGI [7] [µM],TGI [8] [µM],TGI [9] [µM],TGI [10] [µM],GI50 [2] [µM],GI50 [3] [µM],GI50 [4] [µM],GI50 [5] [µM],GI50 [8] [µM],GI50 [10] [µM]
CCOC(=N)CC(=O)Nc1cccc(Cl)c1,> 100,> 100,> 100,> 100,> 100,> 100,> 100,> 100,> 100,,,,,,,
COc1c(-c2ccc(O)c(O)c2)oc2c(O)c(O)cc(O)c2c1=O,> 100,73.8,> 100,> 100,70.7,> 100,,97.7,,> 100,,,,,,
CCCCc1n(Cc2ccc3ccccc3c2)cc[n+]1Cc1ccc2ccccc2c1,,3.4,2.08,2.64,2.26,,,4.03,,2.53,1.39,0.663,1.18,0.732,1.52,1.11
COc1ccc(-c2cc(-c3cc(Cl)cc(Br)c3O)[nH]c(=O)n2)cc1,57.2,35.3,24.5,42.3,52.4,29,50,70.7,48.5,,,,,,,
Cc1ccc(NC(=S)SCCC(=O)O)cc1,> 100,> 100,> 100,,,> 100,> 100,> 100,> 100,,,,,,,
COc1cc2c(cc1OC)NC(=O)NC(Cc1ccc3c(c1)OCO3)CC2 (stereo unspecified),> 100,> 100,,> 100,> 100,> 100,> 100,> 100,> 100,,,,,,,
CCN(CC)C(=O)N1CCN(C=S)CC1,> 100,> 100,> 100,> 100,> 100,> 100,> 100,> 100,> 100,,,,,,,
CSc1nc(NC2OC(COC(C)=O)C(OC(C)=O)C(OC(C)=O)C2OC(C)=O)c(-c2csc(N)n2)c(=O)n1C (stereo unspecified),> 100,> 100,> 100,> 100,> 100,> 100,> 100,> 100,> 100,,,,,,,
Clc1ccc2nc(-c3ccccc3)nc(Cl)c2c1,> 100,> 100,> 100,95.1,> 100,> 100,> 100,> 100,31.1,,,,,,,
COc1ccc2c(c1)CC1c3c(ccc(OC)c3O)CC2N1C (stereo unspecified),> 100,73.8,47.3,29.4,> 100,34.8,> 100,80.6,40.3,,,,,,,
CC1=C(Cl)C=CP(=O)(OC(C)C)C1 (stereo unspecified),,> 100,> 100,> 100,> 100,> 100,> 100,> 100,> 100,,,,,,,
COC(=O)C1C=NNC1C(=O)OC (stereo unspecified),> 100,> 100,> 100,> 100,> 100,> 100,> 100,> 100,> 100,,,,,,,

# Source: PubChem BioAssay (NCI)
